The term IC50 denotes the concentration that gives 50% inhibition.

The test system of one test is convulsion induced by AMPA. The test is described as follows: Anticonvulsant action induced by AMPA. The class given is in vivo, mice of ddy strain. Conditions: 25 mg/kg orally, mice; AMPA injected into lateral ventricle 30 minutes or 1 hour after administration. As for the experimental part:
Anticonvulsant Action Induced by AMPA A test compound was suspended in a 0.5% methyl cellulose solution or in sesame oil and was orally administered (25 mg/kg) to male mice of ddy strain. After 30 minutes or 1 hour from the oral administration, AMPA was continuously injected ([…]/5 μl/minute/mouse) into lateral ventricle to induce the convulsions. The effect was judged by a time-extending action until the convulsion takes place by a continuous injection of AMPA.
As for `N#Cc1ccccc1-n1nc(-c2ccccn2)cc(-c2cccnc2)c1=O` [Example 45, 2-(2-Cyanophenyl)-4-(3-pyridyl)-6-(2-pyridyl)-3 (2H)-pyridazinone], the “anticonvulsant action (time-extending action until the convulsion takes place)” value was “significantly inhibited the convulsion induced by AMPA”.
On the same count and under the same terms, the result for `COc1ccccc1C1=NN(c2ccccc2C#N)C(=O)N(c2ccccc2)C1` [Example 97, 2-(2-Cyanophenyl)-6-(2-methoxyphenyl)-4-phenyl-4,5-dihydro-1,2,4-triazin-3 (2H)-one] reads “significantly inhibited the convulsion induced by AMPA”.

The subject of another test is AMPA receptor. As to the kind of experiment: Suppressing action to calcium influx into nerve cells induced by AMPA. The class given is cell-based. Conditions: Fura2-AM, stimulation with 2 μM AMPA, primary culture of rat embryo cerebral cortex nerve cells, 1 μM MK-801. An excerpt: Suppressing Action to Calcium Influx into Nerve Cells Induced by AMPA
The suppressing action of the compounds of the present invention to calcium influx into nerve cells induced by AMPA was investigated using the primary culture system of nerve cells of cerebral cortex of embryo of rat.
Cerebral cortex was cut out from the brain of rat of gestational 18 days and treated with trypsin and DNase to disperse the cells. The cells were flown by MEM containing 10% of serum, sown in a culture bottle and astrocytes were proliferated. The astrocytes were re-dispersed by trypsin and sown in a 96-well plate. After incubation for one week, it was confirmed that the astrocytes covered all over the bottom and then the nerve cells of cerebral cortex which was dispersed by the above method were sown thereupon. After incubation for 24 hours, the medium was changed, the incubation was carried out for one week and, after that, the medium was changed to that containing 1 μM of MK-801. Nerve cells which were incubated for not shorter than 8 to 10 days were used.
Calcium influx into the cells was measured using Fura2-AM which was a calcium-sensitive fluorescent dye. It was treated in a medium containing Fura2-AM for 1 hour, incorporated into the cells, exchanged to a Tyrode solution containing 1 μM MK-801 and stimulation was carried out using 2 μM AMPA. Change in the amount of calcium flown into the cells were measured as the change in the fluorescent intensity at the exciting wave length of 340/380 nm. […] As the control compound, GYKI52466 (Le Peillet, et al., Brain Res., 571, 115, 1992) was used.
For `N#Cc1ccccc1-n1nc(-c2ccccn2)cc(-c2cccnc2)c1=O` [Example 45, 2-(2-Cyanophenyl)-4-(3-pyridyl)-6-(2-pyridyl)-3 (2H)-pyridazinone], the IC50 was 200 nM.
Still for that read-out and setting: the result for `COc1ccccc1C1=NN(c2ccccc2C#N)C(=O)N(c2ccccc2)C1` [Example 97, 2-(2-Cyanophenyl)-6-(2-methoxyphenyl)-4-phenyl-4,5-dihydro-1,2,4-triazin-3 (2H)-one] reads 700 nM; that for `N#Cc1ccccc1N1N=C(c2ccccn2)CN(c2ccsc2)C1=O` [Example 101, 2-(2-Cyanophenyl)-6-(2-pyridyl)-4-(thiophene-3-yl)-4,5-dihydro-1,2,4-triazin-3 (2H)-one], 100 nM.
The same measure, in the same setting: the value for `O=c1c(-c2cccc(OCc3ccccn3)c2)cc(-c2ccccn2)nn1-c1ccccc1Br` [Example 37, 2-(2-Bromophenyl)-4-[3-(2-picolyloxyphenyl)]-6-(2-pyridyl)-3 (2H)-pyridazinone] was 100 nM.
The same measure, in the same setting: the result for `O=C1N(c2ccc(F)cc2)CC(c2ccccn2)=NN1c1ccccc1Br` [Example 122, 2-(2-Bromophenyl)-4-(4-fluorophenyl)-6-(2-pyridyl)-4,5-dihydro-1,2,4-triazin-3 (2H)-one] reads 200 nM.
For `O=C1C(c2ccccc2O)CC(c2ccccn2)=NN1c1ccccc1` (stereo not drawn) [Example 33, 4-(2-Hydroxyphenyl)-2-phenyl-6-(2-pyridyl)-4,5-dihydro-3 (2H)-pyridazinone], the IC50 came out at 70 nM.
The same measure, in the same setting: the value for `O=C1C(c2cccnc2)C2COc3ccccc3C2=NN1c1ccccc1Br` (stereo not drawn) [Example 50, 2-(2-Bromophenyl)-4-(3-pyridyl)-2,3,4,4a-tetrahydro-5H-(1)benzopyrano[4,3-c]pyridazin-3-one] was 100 nM; that for `O=c1c(-c2ccccc2Br)cc(-c2ccccn2)nn1-c1ccccc1` [Example 60, 4-(2-Bromophenyl)-2-phenyl-6-(2-pyridyl)-3 (2H)-pyridazinone] was 200 nM; that for `O=c1c(-c2cccnc2)c2c(nn1-c1ccccc1I)-c1ccccc1OC2` [Example 58, 2-(2-Iodophenyl)-4-(3-pyridyl)-2,3-dihydro-5H-(1)benzopyrano[4,3-c]pyridazin-3-one] was 400 nM.
Consider `O=C1N(c2cccnc2)CC(c2ccccn2)=NN1c1ccccc1Br` [Example 110, 2-(2-Bromophenyl)-6-(2-pyridyl)-4-(3-pyridyl)-4,5-dihydro-1,2,4-triazin-3 (2H)-one], for which the IC50 was 100 nM.
In the case of `O=C1C(c2cccnc2)C2COc3ccccc3C2=NN1c1ccccc1I` (stereo not drawn) [Example 8, 2-(2-Iodophenyl)-4-(3-pyridyl)-2,3,4,4a-tetrahydro-5H-(1)benzopyrano[4,3-c]pyridazin-3-one], the IC50 turned out to be 100 nM.
Still for that read-out and setting: the result for `O=C1C(c2ccccc2OS(=O)(=O)C(F)(F)F)CC(c2ccccn2)=NN1c1ccccc1` (stereo not drawn) [Example 38, 2-Phenyl-6-(2-pyridyl)-4-(2-trifluoromethylsulfonyloxyphenyl)-4,5-dihydro-3 (2H)-pyridazinone] reads 400 nM.
Take `O=c1c(-c2cccc(OCCO)c2)cc(-c2ccccn2)nn1-c1ccccc1Br` [Example 3, 2-(2-Bromophenyl)-4-[3-(2-hydroxyethoxy)phenyl]-6-(2-pyridyl)-3 (2H)-pyridazinone]: the IC50 is 200 nM.
On the same count and under the same terms, the result for `O=c1c(-c2cccnc2)cc(-c2ccccn2)nn1-c1ccsc1` [Example 73, 2-(Thiophen-3-yl)-4-(3-pyridyl)-6-(2-pyridyl)-3 (2H)-pyridazinone] reads 1100 nM; that for `N#Cc1ccccc1-n1nc2c(c(-c3ccccc3)c1=O)COc1ccc(F)cc1-2` [Example 54, 2-(2-Cyanophenyl)-9-fluoro-4-phenyl-2,3-dihydro-5H-(1)benzopyrano[4,3-c]pyridazin-3-one], 100 nM; that for `N#Cc1ccccc1-c1cc(-c2ccccn2)nn(-c2ccccc2)c1=O` [Example 23, 4-(2-Cyanophenyl)-2-phenyl-6-(2-pyridyl)-3 (2H)-pyridazinone], 100 nM.
Same read-out and setting: the result for `N#Cc1ccccc1-n1nc(-c2ncccn2)cc(-c2ccccc2)c1=O` [Example 70, 2-(2-Cyanophenyl)-4-phenyl-6-(2-pyrimidinyl)-3 (2H)-pyridazinone] reads 800 nM; that for `O=C1C(c2ccccc2)CC(c2ccccn2)=NN1c1ccccc1F` (stereo not drawn) [Example 28, 2-(2-Fluorophenyl)-4-phenyl-6-(2-pyridyl)-4,5-dihydro-3 (2H)-pyridazinone], 100 nM.
On the same count and under the same terms, the result for `O=C1C(c2ccccc2O)CC(c2cccnc2)=NN1c1ccccc1Br` (stereo not drawn) [Example 34, 2-(2-Bromophenyl)-4-(2-hydroxyphenyl)-6-(3-pyridyl)-4,5-dihydro-3 (2H)-pyridazinone] reads 300 nM; that for `N#Cc1ccccc1N1N=C2c3cc(F)ccc3OCC2C(c2ccccc2)C1=O` (stereo not drawn) [Example 48, 2-(2-Cyanophenyl)-9-fluoro-4-phenyl-2,3,4,4a-tetrahydro-5H-(1)benzopyrano[4,3-c]pyridazin-3-one], 100 nM.
Take `COc1ccc(C2CC(c3ccccn3)=NN(c3ccccc3Br)C2=O)cc1` (stereo not drawn) [Example 15, 2-(2-Bromophenyl)-4-(4-methoxyphenyl)-6-(2-pyridyl)-4,5-dihydro-3 (2H)-pyridazinone]: the IC50 is 200 nM.
For the molecule `O=C1N(c2ccccc2)CC(c2ncccn2)=NN1c1ccccc1` [Example 119, 2-Phenyl-4-phenyl-6-(2-pyrimidinyl)-4,5-dihydro-1,2,4-triazin-3 (2H)-one], the IC50 was 4300 nM.
Same read-out and setting: the value for `N#Cc1ccccc1N1N=C2c3ccccc3OCC2C(c2ccccc2)C1=O` (stereo not drawn) [Example 6, 2-(2-Cyanophenyl)-4-phenyl-2,3,4,4a-tetrahydro-5H-(1)benzopyrano[4,3-c]pyridazin-3-one] was 100 nM.
Still for that read-out and setting: the value for `O=C1N(c2ccsc2)CC(c2ccccn2)=NN1c1ccccc1` [Example 105, 2-Phenyl-6-(2-pyridyl)-4-(thiophen-3-yl)-4,5-dihydro-1,2,4-triazin-3 (2H)-one] was 200 nM.
The same measure, in the same setting: the result for `COc1cccc(C2CC(c3ccccn3)=NN(c3ccccc3Br)C2=O)c1` (stereo not drawn) [Example 1, 2-(2-Bromophenyl)-4-(3-methoxyphenyl)-6-(2-pyridyl)-4,5-dihydro-3 (2H)-pyridazinone] reads 100 nM.
Take `O=c1c(-c2ccccc2O)cc(-c2ccccn2)nn1-c1ccccc1Br` [Example 51, 2-(2-Bromophenyl)-4-(2-hydroxyphenyl)-6-(2-pyridyl)-3 (2H)-pyridazinone]: the IC50 was determined as 800 nM.
For `COc1ccccc1C1=NN(c2ccccc2Br)C(=O)N(c2ccccc2)C1` [Example 89, 2-(2-Bromophenyl)-6-(2-methoxyphenyl)-4-phenyl-4,5-dihydro-1,2,4-triazin-3 (2H)-one], the IC50 was 5000 nM.
On the same count and under the same terms, the result for `N#Cc1ccccc1-n1nc(-c2ccccn2)cc(-c2cccc(OCCO)c2)c1=O` [Example 4, 2-(2-Cyanophenyl)-4-[3-(2-hydroxyethoxy)phenyl]-6-(2-pyridyl)-3 (2H)-pyridazinone] reads 60 nM.
